According to PubChem BioAssay AID2060904 (Molecular Pharmacology Branch, DTP, NCI, 2025):

Test system: 349418-098-R-PDC complex spheroid viability
Assay: Anticancer human tumor 349418-098-R-PDC patient-derived lung adenocarcinoma cell line growth inhibition [RAS]
Conditions: for IC50: curve of first compound; for viability, T/C: stronger effect = lower value
From the text: RAS pathway inhibitors in Combinations in Complex Spheroids
A high-throughput screen of multi-cell type tumor spheroids was designed to identify active combinations of RAS pathway inhibitors and targeted small molecules. Complex spheroids include a stromal component modeled by human endothelial cells (HUVEC) and fibroblasts modeled by human mesenchymal stem cells (MSCs). The concentration ranges selected for each drug and investigational agent were based upon clinically achievable concentrations if the clinical Cmax of the agent was known.
Compounds. The drugs and investigational agents: abemaciclib (NSC768073), cobimetinib (NSC768068), divarasib (GDC6063, NSC841802), docetaxel (NSC628503), GDC-1971 (RLY-1971, NSC841576), gemcitabine (NSC613327), inavolisib (NSC800729), ipatasertib (NSC767898), KB-0742 (NSC834161), MRTX-1133 (NSC836407), osimertinib (NSC779217), RMC-4630 (NSC839698), RMC-6236 (NSC851965), RMC-6291 (NSC852671), Ro-3306 (NSC812927), sapanisertib (NSC764658), SN-38 (NSC673596), staurosporine (NSC755774), SY5609 (NSC837396), and tovorafenib (DAY101, NSC766906), were obtained from the National Cancer Institute (NCI) Developmental Therapeutics Program Chemical Repository. The FDA-approved anticancer drug set is available from the NCI Developmental Therapeutics Program. […] The stock solutions were prepared in dimethyl sulfoxide (DMSO, Sigma-Aldrich, St. Louis, MO, cat. D2650) at 800-fold the tested concentration and stored at -70 degrees C prior to their use. All drugs and investigational agents were tested over a range starting from a high concentration at or near the clinical Cmax and decreasing in half-log increments. If the clinical Cmax for an agent had not been determined, the highest concentration tested was 10 microM.
Cell Culture. All cells were maintained in an incubator at 37 degrees C and 5% CO2 with 95% humidity. The PDC lines were cultured according to standard operating procedures established by the NCI PDMR. All PDCs were thawed and cultured in Matrigel-coated flasks prepared with a working solution of 1X Ham's F-12 nutrient mix, without supplementation (Invitrogen, Waltham, MA, cat. 11765054), 100 U/mL penicillin-streptomycin (Invitrogen, cat. 15140122), and 2.5% Matrigel (Corning Inc., Corning, NY, cat. 354248) for the first three passages. The 362531-283-R-J2-PDC and 782815-120-R-J1-PDC lines were cultured in 6C/Colon 1B media, which includes advanced DMEM/F-12 (Thermo Fisher Scientific, cat. 12634028), 10 mM HEPES (Thermo Fisher Scientific, cat. 15630080), 1X GlutaMAX supplement (Thermo Fisher Scientific, cat. 35050061), 0.1 mg/mL primocin (InvivoGen, San Diego, CA, cat. ant-pm-2), 10% defined fetal bovine serum, heat inactivated (HyClone Laboratories Inc., Logan, UT, cat. SH30070.03HI), 50% L-WRN conditioned media (ATCC, cat. CRL-3276), 1.25 mM N-Acetyl-L-cysteine (Sigma-Aldrich, cat. A9165), 10 mM nicotinamide (Sigma-Aldrich, cat. N0636), 1X B-27 supplement (Thermo Fisher Scientific, cat. 17504044), 1X N-2 supplement (Thermo Fisher Scientific, cat. 17502048), 50 ng/mL human EGF (Thermo Fisher Scientific, cat. PHG0311), and 10 microM Y-27632 dihydrochloride (Tocris Bioscience, cat. 1254). The K12877-001-R-J1-PDC line was cultured in 6I media, which includes all 6C/Colon 1B media plus 10 ng/mL human FGF-10 (PeproTech, cat. 100-26), 1 ng/mL human FGF-2 (PeproTech, cat. 100-18B), 1 µM prostaglandin E2 (Tocris Bioscience, cat. 2296), […] hydrocortisone (Sigma-Aldrich, cat. H4001), and […] bovine insulin (Sigma-Aldrich, cat. I6634). The K86415-001-R-J1-PDC line was cultured in 6D media, which includes all 6C/Colon 1B media components minus the L-WRN conditioned media. The 485176-168-R4-J1-PDC was cultured in PANC media, which includes all 6C/Colon 1B media plus 100 ng/mL human FGF-10 (PeproTech, cat. 100-26), 500 nM SB-431542 (Selleckchem, cat. S1067), and 10 nM gastrin (Tocris Bioscience, cat. 3006). […]
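Further: spheroids exposed to compound for seven days before viability readout.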

Structure (SMILES): C=CC(=O)N1CCN(c2nc(OCC3CCCN3C)nc3c(F)c(-c4nc(N)cc(C)c4C(F)(F)F)c(Cl)cc23)C(C)C1 (centres undefined) + C#Cc1c(F)ccc2cc(O)cc(-c3ncc4c(N5CC6CCC(C5)N6)nc(OCC56CCCN5CC(F)C6)nc4c3F)c12
- IC50 (second compound 0.0316 µM): > 1000 nM
- IC50 (second compound 0.1 µM): > 1000 nM
- IC50 (second compound 0.316 µM): > 1000 nM
- IC50 (second compound 1 µM): > 1000 nM
- IC50 (second compound 3.16 µM): > 1000 nM
- IC50 (second compound 10 µM): 272 nM
- viability, T/C (second compound 0.0316 µM, first compound 0.00316 µM): 82.8%
- viability, T/C (second compound 0.0316 µM, first compound 0.01 µM): 105%
- viability, T/C (second compound 0.0316 µM, first compound 0.0316 µM): 112%
- viability, T/C (second compound 0.0316 µM, first compound 0.1 µM): 75.1%
- viability, T/C (second compound 0.0316 µM, first compound 0.316 µM): 111%
- viability, T/C (second compound 0.0316 µM, first compound 1 µM): 69.8%
- viability, T/C (second compound 0.1 µM, first compound 0.00316 µM): 74.3%
- viability, T/C (second compound 0.1 µM, first compound 0.01 µM): 124%
- viability, T/C (second compound 0.1 µM, first compound 0.0316 µM): 104%
- viability, T/C (second compound 0.1 µM, first compound 0.1 µM): 87.2%
- viability, T/C (second compound 0.1 µM, first compound 0.316 µM): 98.3%
- viability, T/C (second compound 0.1 µM, first compound 1 µM): 83.9%
- viability, T/C (second compound 0.316 µM, first compound 0.00316 µM): 65.6%
- viability, T/C (second compound 0.316 µM, first compound 0.01 µM): 125%
- viability, T/C (second compound 0.316 µM, first compound 0.0316 µM): 109%
- viability, T/C (second compound 0.316 µM, first compound 0.1 µM): 79.7%
- viability, T/C (second compound 0.316 µM, first compound 0.316 µM): 89.3%
- viability, T/C (second compound 0.316 µM, first compound 1 µM): 87.6%
- viability, T/C (second compound 1 µM, first compound 0.00316 µM): 81%
- viability, T/C (second compound 1 µM, first compound 0.01 µM): 114%
- viability, T/C (second compound 1 µM, first compound 0.0316 µM): 82.9%
- viability, T/C (second compound 1 µM, first compound 0.1 µM): 91.2%
- viability, T/C (second compound 1 µM, first compound 0.316 µM): 83.2%
- viability, T/C (second compound 1 µM, first compound 1 µM): 77.9%
- viability, T/C (second compound 3.16 µM, first compound 0.00316 µM): 77.4%
- viability, T/C (second compound 3.16 µM, first compound 0.01 µM): 105%
- viability, T/C (second compound 3.16 µM, first compound 0.0316 µM): 112%
- viability, T/C (second compound 3.16 µM, first compound 0.1 µM): 73.3%
- viability, T/C (second compound 3.16 µM, first compound 0.316 µM): 116%
- viability, T/C (second compound 3.16 µM, first compound 1 µM): 75.2%
- viability, T/C (second compound 10 µM, first compound 0.00316 µM): 91%
- viability, T/C (second compound 10 µM, first compound 0.01 µM): 75%
- viability, T/C (second compound 10 µM, first compound 0.0316 µM): 85.3%
- viability, T/C (second compound 10 µM, first compound 0.1 µM): 66.8%
- viability, T/C (second compound 10 µM, first compound 0.316 µM): 47.7%
- viability, T/C (second compound 10 µM, first compound 1 µM): 7.82%

Structure (SMILES): C=CC(=O)N1CCN(c2nc(OCC3CCCN3C)nc3c(F)c(-c4nc(N)cc(C)c4C(F)(F)F)c(Cl)cc23)C(C)C1 (centres undefined) + CCn1c(-c2cccnc2C(C)OC)c2c3cc(ccc31)N1CCOC(CC(NC(=O)C(C(C)C)N(C)C(=O)C3(F)CCN(C(=O)C#CC(C)(C)N(C)C)CC3)C(=O)N3CCCC(N3)C(=O)OCC(C)(C)C2)C1
- IC50 (second compound 0.000949 µM): > 1000 nM
- IC50 (second compound 0.003 µM): > 1000 nM
- IC50 (second compound 0.00949 µM): > 1000 nM
- IC50 (second compound 0.03 µM): > 1000 nM
- IC50 (second compound 0.0949 µM): > 1000 nM
- IC50 (second compound 0.3 µM): > 1000 nM
- viability, T/C (second compound 0.000949 µM, first compound 0.00316 µM): 99%
- viability, T/C (second compound 0.000949 µM, first compound 0.01 µM): 94%
- viability, T/C (second compound 0.000949 µM, first compound 0.0316 µM): 111%
- viability, T/C (second compound 0.000949 µM, first compound 0.1 µM): 106%
- viability, T/C (second compound 0.000949 µM, first compound 0.316 µM): 116%
- viability, T/C (second compound 0.000949 µM, first compound 1 µM): 87.4%
- viability, T/C (second compound 0.003 µM, first compound 0.00316 µM): 112%
- viability, T/C (second compound 0.003 µM, first compound 0.01 µM): 97.6%
- viability, T/C (second compound 0.003 µM, first compound 0.0316 µM): 103%
- viability, T/C (second compound 0.003 µM, first compound 0.1 µM): 92.6%
- viability, T/C (second compound 0.003 µM, first compound 0.316 µM): 109%
- viability, T/C (second compound 0.003 µM, first compound 1 µM): 82.8%
- viability, T/C (second compound 0.00949 µM, first compound 0.00316 µM): 105%
- viability, T/C (second compound 0.00949 µM, first compound 0.01 µM): 98.3%
- viability, T/C (second compound 0.00949 µM, first compound 0.0316 µM): 101%
- viability, T/C (second compound 0.00949 µM, first compound 0.1 µM): 101%
- viability, T/C (second compound 0.00949 µM, first compound 0.316 µM): 105%
- viability, T/C (second compound 0.00949 µM, first compound 1 µM): 98.8%
- viability, T/C (second compound 0.03 µM, first compound 0.00316 µM): 99.3%
- viability, T/C (second compound 0.03 µM, first compound 0.01 µM): 97.4%
- viability, T/C (second compound 0.03 µM, first compound 0.0316 µM): 90.2%
- viability, T/C (second compound 0.03 µM, first compound 0.1 µM): 104%
- viability, T/C (second compound 0.03 µM, first compound 0.316 µM): 103%
- viability, T/C (second compound 0.03 µM, first compound 1 µM): 83.3%
- viability, T/C (second compound 0.0949 µM, first compound 0.00316 µM): 102%
- viability, T/C (second compound 0.0949 µM, first compound 0.01 µM): 89%
- viability, T/C (second compound 0.0949 µM, first compound 0.0316 µM): 85.5%
- viability, T/C (second compound 0.0949 µM, first compound 0.1 µM): 89.7%
- viability, T/C (second compound 0.0949 µM, first compound 0.316 µM): 100%
- viability, T/C (second compound 0.0949 µM, first compound 1 µM): 89%
- viability, T/C (second compound 0.3 µM, first compound 0.00316 µM): 85.4%
- viability, T/C (second compound 0.3 µM, first compound 0.01 µM): 95.2%
- viability, T/C (second compound 0.3 µM, first compound 0.0316 µM): 83.8%
- viability, T/C (second compound 0.3 µM, first compound 0.1 µM): 87.8%
- viability, T/C (second compound 0.3 µM, first compound 0.316 µM): 101%
- viability, T/C (second compound 0.3 µM, first compound 1 µM): 80%
